Patent US20260297136A1, “PEPTIDES WITH LIPOLYTIC, ANTI-LIPOGENIC, ANTIFIBROTIC AND ANTI-INFLAMMATORY ACTIVITY” (FUNDACIÓ HOSPITAL UNIVERSITARI VALL D'HEBRON - INSTITUT DE …, priority 2023, published 2026)

How the values were obtained:
HepG2 cells [1] = experiment: Hepatic lipogenesis gene expression in HepG2 cells (24 h), Example 7; type: cell-based, human; conditions: 40 μg/ml, vs vehicle
Excerpt: FIG. 32. Effect of GP6 and modified peptides on hepatic lipogenesis in HepG2 cells. Each bar within each group represents mRNA levels of a key hepatic lipogenic enzyme, from left to right: Acetyl-CoA Carboxylase (ACC), ATP Citrate Lyase (ACLY) and Fatty Acid Synthase (FAS), and a key transcription factor regulating several lipogenic enzymes such as PPARγ (PPARγ).
(§1) Cell culture reagents were from Life Technologies Inc (Invitrogen SA, Barcelona, Spain). HepG2 hepatoblastoma cells (cat. no. HB-8065; ATCC, LGC Standards SLU, Barcelona, Spain) were maintained in Dulbecco's modified Eagle medium (DMEM) supplemented with 10% fetal bovine serum and antibiotics.
(§2) • HepG2 cells were cultured for 5 day in the absence or presence of 30 mM fructose. Cells cultured in 30 mM fructose were daily treated with vehicle, Telmisartan, Semaglutide or EDL6D. • HepG2 cells were cultured for 24 h in the absence or presence of GP6 (40 μg/ml), GP10 (40 μg/ml), GP11 (40 μg/ml), GP12 (40 μg/ml), GP13 (40 μg/ml) or SHBG (20 nM). • HepG2 cells were cultured in the absence or presence of 30 mM fructose and treated for 2 h with vehicle or GP4 (40 μg/ml), GP6 (40 μg/ml), GP7 (40 μg/ml), GP8 (40 μg/ml), GP9 (40 μg/ml), GP10 (40 μg/ml), GP11 (40 μg/ml), GP12 (40 μg/ml), GP13 (40 μg/ml) or SHBG (20 nM).
(§3) Total RNA was extracted from HepG2 and LX-2 cells using TRIzol reagent (Invitrogen SA). Reverse transcription was performed at 42° C. for 50 minutes using […] of total RNA, 200 U of Superscript II, and an oligo-dT primer and reagents provided by Invitrogen. An aliquot of the reverse transcription product was amplified in a […] reaction using SYBRGreen (Invitrogen SA) with appropriate oligonucleotide primer pairs corresponding to human SHBG, ACC, FAS, ACLY, PPARG, and 18S and mouse ACC, FAS, ACLY, PPARG, Col1A1 and 18S. Results were analyzed using the 7000 Sequence Detection System program (Applied Biosystems, Thermo Fisher Scientific, Barcelona, Spain) (Shez-Lopez et al Endocrinology 2017).

HepG2 cells [2] = experiment: Hepatic lipogenic key enzymes in HepG2 cells in the presence of 30 mM fructose (2 h), Example 7; type: cell-based, human; conditions: 40 μg/ml
Procedure: FIG. 34. Effects of different peptides and SHBG in reducing hepatic lipogenic key enzymes in the presence of 30 mM fructose. Each bar within each group represents mRNA levels of a key hepatic lipogenic enzyme, from left to right: Acetyl-CoA Carboxylase (ACC), ATP Citrate Lyase (ACLY) and Fatty Acid Synthase (FAS), and a key transcription factor regulating several lipogenic enzymes such as PPARγ (PPARγ).
as §1, §2, §3

[3] = system: obesity and fatty liver disease mouse model; experiment: Therapeutic effects in an obesity and fatty liver disease mouse model, Example 6; type: in vivo, C57BL6/J male mice; conditions: Telmisartan 5 mg/kg/day in drinking water, 10 weeks
Procedure: C57BL6/J male mice were purchased and kept for quarantine and acclimatization for a period of about 7 days before initiation of every experiment. Mice were housed in clean and sterilized mice cages and maintained in a controlled environment with 22+3° C. temperature, 50+20% humidity, a light/dark cycle of 12 hours each and 15-20 fresh air changes per hour.
For Obesity and NAFLD induction, the animals were fed ad libitum, either with chow diet (150SP-10, Safe Diets) or 45% high-fat diet (TD.190179, Envigo) plus 30% fructose (F0127, Sigma Aldrich) in drinking water for 20 weeks. The therapeutic effect of a daily subcutaneous injection of GP6 (20 mg/kg/day) in this mouse model was assessed for 10 weeks, starting the treatment on week 10 of the experiment until week 20.
A group of control mice (n=10) was fed with control diet and regular drinking water and a group of mice (n=30) obesity and fatty liver disease was induced for 10 weeks. At this point, mice were randomly divided in three groups of n=10, the first group was treated with daily subcutaneous injections of vehicle (water), the second group was treated with Telmisartan (5 mg/kg/day) in the drinking water and a subcutaneous injection of vehicle, and the third group with daily subcutaneous injection of GP6 (20 mg/kg/day) during 10 weeks.
At the end of the experiment mice were sacrificed, serum samples were extracted, tissues were weighted and part was fixed in paraformaldehyde for histology studies and part immediately frozen at −80 C for mRNA and protein expression studies as well as assessment of triglycerides.
The histology studies, AST and ALT measurements, TG measurements, and the RNA analysis were performed as described in Example 4.

HepG2 cells [4] = experiment: Hepatic lipogenesis gene expression (ACC, FAS, ACLY mRNA by RTPCR) in HepG2 cells, Example 2; type: cell-based, human; conditions: 10 μM, 24 h, relative to 18S
Procedure: FIG. 5 Human hepatoblastoma cell line HepG2 was treated with vehicle (DMSO) or 10 μM of GP4, GP7, GP8 or GP9 for 24 h. RNA was extracted and mRNA levels of Acetyl-CoA Carboxylase (ACC), Fatty Acid Synthase (FAS) and ATP-Citrate Lyase (ACLY) relative to 18S were measured by RTPCR.
Cell culture reagents were from Life Technologies Inc (Invitrogen SA, Barcelona, Spain). HepG2 hepatoblastoma cells (cat. no. HB-8065; ATCC, LGC Standards SLU, Barcelona, Spain) were maintained in Dulbecco's modified Eagle medium (DMEM) supplemented with 10% fetal bovine serum and antibiotics. HepG2 cells were treated with vehicle or 10 μM of GP4, GP7, GP8 and GP9 for 24 h. LX-2 human hepatic stellate cells (SCC064) were maintained in DMEM supplemented with 2% fetal bovine serum and antibiotics. For experiments, LX-2 were cultured for 24 h in DMEM 0.2% FBS and treated for 24 h with vehicle or TGFβ1 (20 ng/ml) in the absence or presence of 8 μM of GP4, GP7, GP8 and GP9 for 24 h. At the end of the experiment's cells were harvested for gene expression analysis.
as §3, with “human” for “human SHBG,”, “Col1A1” for “PPARG,”, “(shown in table 7).” for “and mouse ACC, FAS, ACLY, PPARG, Col1A1 and 18S.”, “(Sex Hormone-Binding Globulin Reduction in Metabolic Disorders May Play a Role in NAFLD Development.Saez-Lopez C, Barbosa-Desongles A, Hernandez C, Dyer R A, Innis S M, Simo R, Selva D M. Endocrinology. 2017 Mar. 1; 158(3):545-559. doi: 10.1210/en.2016-1668).” for “(Shez-Lopez et al Endocrinology 2017).”

Molecule | ACC mRNA levels (HepG2 cells [1]) | ACLY mRNA levels (HepG2 cells [1]) | FAS mRNA levels (HepG2 cells [1]) | PPARγ mRNA levels (HepG2 cells [1]) | fructose-induced expression of ACC (HepG2 cells [2]) | fructose-induced expression of ACLY (HepG2 cells [2]) | fructose-induced expression of FAS (HepG2 cells [2]) | fructose-induced expression of PPARγ (HepG2 cells [2]) | liver triglyceride (TAG) content [3] | liver weight [3] | Total body weight versus control mice ([3]; vs control diet mice) | serum glucose levels ([3]; vs vehicle) | ATP-Citrate Lyase (ACLY) mRNA levels (HepG2 cells [4]) | Acetyl-CoA Carboxylase (ACC) mRNA levels (HepG2 cells [4]) | Fatty Acid Synthase (FAS) mRNA levels (HepG2 cells [4])
TKTASAFEVRTWDPEGVIFYGDTNPKDDWF [GP11] | reduced the mRNA levels | reduced the mRNA levels | reduced the mRNA levels | reduced the mRNA levels | able to reduce | able to reduce | able to reduce | able to reduce |  |  |  |  |  |  | 
CCCc1nc2c(C)cc(-c3nc4ccccc4n3C)cc2n1Cc1ccc(-c2ccccc2C(=O)O)cc1 [Telmisartan, reference compound] |  |  |  |  |  |  |  |  | failed to decrease TAG liver content | did not reduced significantly | significantly increased | did not have any effect |  |  | 
ATKTSASFEVRTWDPEAVIFY [GP10] | reduced the mRNA levels | reduced the mRNA levels | reduced the mRNA levels | reduced the mRNA levels | able to reduce | able to reduce | able to reduce | able to reduce |  |  |  |  |  |  | 
TKTSASFEVRTWDPEGVIFYADTNPKDDWF [GP13] | able to reduce | no ACLY and PPARγ | able to reduce | no ACLY and PPARγ | able to reduce the expression of ACC and ACLY more effectively than SHBG | able to reduce the expression of ACC and ACLY more effectively than SHBG | had no effect on FAS | increased PPARγ expression |  |  |  |  |  |  | 
CC[C@@H](C)[C@@H](NC(=O)[C@H](NC(=O)CNC(=O)[C@@H](CCC(=O)O)NC(=O)[C@H]1CCCN1C(=O)[C@@H](CC(=O)O)NC(=O)[C@@H](Cc1c[nH]c2ccccc12)NC(=O)[C@H](N)[C@H](C)O)C(C)C)C(=O)N[C@H](Cc1ccccc1)C(=O)N[C@H](Cc1ccc(O)cc1)C(=O)NCC(=O)N[C@H](CC(=O)O)C(=O)N[C@@H](C(=O)N[C@H](CC(N)=O)C(=O)N1CCC[C@@H]1C(=O)N[C@H](CCCCN)C(=O)N[C@H](CC(=O)O)C(=O)N[C@H](CC(=O)O)C(=O)N[C@H](Cc1c[nH]c2ccccc12)C(=O)N[C@H](Cc1ccccc1)C(=O)O)[C@H](C)O [GP7] |  |  |  |  | able to reduce the expression of ACC and ACLY more effectively than SHBG | able to reduce the expression of ACC and ACLY more effectively than SHBG | had no effect on FAS and PPARγ expression | had no effect on FAS and PPARγ expression |  |  |  |  | reduced | reduced | increased
TKTASAFEVRTWDPEGVIFY [GP12] | reduced all key lipogenic genes except FAS | reduced all key lipogenic genes except FAS |  | reduced all key lipogenic genes except FAS | able to reduce | able to reduce | able to reduce | able to reduce |  |  |  |  |  |  | 
